In patent US20190144375A1, “NOVEL CARBOCYCLIC COMPOUNDS AS ROR GAMMA MODULATORS” (Glenmark Pharmaceuticals S.A., priority 2015, published 2019):

Target: T1, GST-tagged ROR gamma ligand binding domain (LBD) (Homo sapiens, UniProt P51449)
T1 construct: purchased Invitrogen
T1 sequence (P51449 269-508 limits assumed): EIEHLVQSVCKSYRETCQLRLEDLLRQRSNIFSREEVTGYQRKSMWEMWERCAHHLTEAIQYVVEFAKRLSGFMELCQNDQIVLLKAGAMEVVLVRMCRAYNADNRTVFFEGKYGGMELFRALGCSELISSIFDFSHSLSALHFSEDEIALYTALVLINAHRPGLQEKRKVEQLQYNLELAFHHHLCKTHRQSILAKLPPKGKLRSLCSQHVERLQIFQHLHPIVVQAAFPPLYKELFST
Experiment: TR-FRET assay for ROR gamma (LanthaScreen, Fluorescein-D22 co-activator peptide recruitment)
Format: biochemical
Settings: for inhibition at 1 µM: 1 μM compound; for inhibition at 1 µM / inhibition at 10 µM: TR-FRET ratio 520/495; for inhibition at 10 µM: 10 μM compound; for IC50: dose response curve, class symbols
Source text: The compounds described herein were screened for ROR gamma modulator activity using the TR-FRET assay (LanthaScreen™ available from Invitrogen of Carlsbad, Calif.) as described in JBC 2011, 286, 26: 22707-10; and Drug Metabolism and Disposition 2009, 37, 10: 2069-78.
The assay is based on the principle that binding of the agonist to the ROR gamma causes a conformational change around helix 12 in the ligand binding domain, resulting in higher affinity for the co-activator peptide. ROR gamma being constitutively active, the Fluorescein-D22 co-activator peptide used in the assay is recruited in the absence of a ligand. Binding of the co-activator peptide, causes an increase in the TR-FRET signal while binding of an antagonist decreases the recruitment of the co-activator peptide, causing a decrease in the TR-FRET signal compared to control with no compound. The assay was performed using a two-step procedure, pre-incubation step with the compound followed by the detection step on addition of the anti-GST tagged terbium (Tb) and fluorescein tagged fluorophores as the acceptor.
Test compounds or reference compounds such as T0901317 (Calbiochem) were dissolved in dimethylsulfoxide (DMSO) to prepare 10.0 mM stock solutions and diluted to the desired concentration. The final concentration of DMSO in the reaction was 4% (v/v). The assay mixture was prepared by mixing 10 nM of the GST-tagged ROR gamma ligand binding domain (LBD) in the assay buffer containing 25 mM HEPES, 100 mM NaCl, 5 mM DTT and 0.01% BSA with or without the desired concentration of the compound. The reaction was incubated at 22° C. for 1 hour. The pre-incubation step was terminated by addition of the detection mixture containing 300 nM Fluorescein-D22 co-activator peptide and 10 nM lantha screen Tb-anti GST antibody into the reaction mixture. After shaking for 5 minutes the reaction was further incubated for 1 hour at room temperature and read […] on an Infinite F500 reader as per the kit instructions (Invitrogen). The inhibition of test compound was calculated based on the TR-FRET ratio of 520/495. The activity was calculated as a percent of control reaction. IC50 values were calculated from dose response curve by nonlinear regression analysis using GraphPad Prism software.
Percentage inhibition at concentrations of 1.0 μM and 10.0 μM are given in the table along with IC50 (nM) details for selected examples.

SMILES | inhibition at 1 µM [%] | inhibition at 10 µM [%] | IC50 [µM]
Cc1ccc(Cl)c(N(C)C(=O)c2ccc(NC(=O)Cc3ccc(C(F)(F)C(C)O)cc3)cc2)c1 (stereo not drawn) [Example 27] | 90.1 | 92 | < 0.05
Cc1cccc(Cl)c1N(C)C(=O)c1ccc(NC(=O)Cc2ccc(C(F)(F)C(C)O)cc2)cc1 (stereo not drawn) [Example 31] | 79.1 | 86.6 | 0.05 to 0.1
Cc1cc(C)cc(N(C)C(=O)c2ccc(NC(=O)Cc3ccc(C(F)(F)C(C)(C)O)cc3)cc2)c1 [Example 9, 4-(2-(4-(1,1-difluoro-2-hydroxy-2-methylpropyl)phenyl)acetamido)-N-(3,5-dimethylphenyl)-N-methylbenzamide] | 86.2 | 97 | > 0.1
Cc1cc(-c2ccccc2F)cc(N(C)C(=O)c2ccc(NC(=O)Cc3ccc(C(F)(F)C(C)O)cc3)cc2)c1 (stereo not drawn) [Example 12] | 89.4 | 93.7 | 0.05 to 0.1
Cc1ccc(N(C)C(=O)c2ccc(NC(=O)Cc3ccc(C(F)(F)[C@H](C)O)cc3)cc2)c(Cl)c1 [Example 30, (S)—N-(2-Chloro-4-methylphenyl)-4-(2-(4-(1,1-difluoro-2-hydroxypropyl)phenyl)acetamido)-N-methylbenzamide] | 85.5 | 88.7 | < 0.05
CN(C(=O)c1ccc(NC(=O)Cc2ccc(C(F)(F)C(N)=O)cc2)cc1)c1ccc(Cl)cc1 [Example 2, 4-(2-(4-(2-amino-1,1-difluoro-2-oxoethyl)phenyl)acetamido)-N-(4-chlorophenyl)-N-methylbenzamide] | 20.7 | 43.4 | –
CCC(F)(F)c1ccc(CC(=O)Nc2ccc(C(=O)N(C)[C@@H](C)c3ccc(Cl)cc3)cc2)cc1 [Example 20] | 61.5 | 75 | –
COCC(F)(F)c1ccc(CC(=O)Nc2ccc(C(=O)N(C)[C@H](C)c3ccc(Cl)cc3)cc2)cc1 [Example 16] | 84.5 | 93.7 | > 0.1
CCC(F)(F)c1ccc(CC(=O)Nc2ccc(C(=O)N(C)c3cc(C)cc(-c4ccccc4F)c3)cc2)cc1 [Example 13] | 87.5 | 90.6 | 0.05 to 0.1
Cc1ccc(N(C)C(=O)c2ccc(NC(=O)Cc3ccc(C(F)(F)C(C)O)cc3)cc2)c(C2CC2)c1 (stereo not drawn) [Example 34] | 91.8 | 92.6 | < 0.05
CC(O)C(F)(F)c1ccc(CC(=O)Nc2ccc(C(=O)N(C)c3ccccc3Cl)cc2)cc1 (stereo not drawn) [Example 15] | 85.5 | 92.8 | < 0.05
Cc1cc(C)c(N(C)C(=O)c2ccc(NC(=O)Cc3ccc(C(F)(F)C(C)O)cc3)cc2)c(Cl)c1 (stereo not drawn) [Example 33] | 86.8 | 90.2 | < 0.05
CCC(F)(F)c1ccc(CC(=O)Nc2ccc(C(=O)N(C)[C@@H](c3ccc(Cl)cc3)C3CC3)cc2)cc1 [Example 18] | 87.4 | 90 | < 0.05
CCOC(=O)C(F)(F)c1ccc(CC(=O)Nc2ccc(C(=O)N(C)c3ccc(Cl)cc3)cc2)cc1 [Example 1, Ethyl 2-(4-(2-((4-((4-chlorophenyl)(methyl)carbamoyl)phenyl)amino)-2-oxoethyl)phenyl)-2,2-difluoroacetate] | 27.6 | 64.5 | –
CC(O)C(F)(F)c1ccc(CC(=O)Nc2ccc(C(=O)N(C)c3cc(Cl)ccc3Cl)cc2)cc1 (stereo not drawn) [Example 5, N-(2,5-Dichlorophenyl)-4-(2-(4-(1,1-difluoro-2-hydroxypropyl)phenyl)acetamido)-N-methylbenzamide] | 87.6 | 94.3 | < 0.05
CC(O)C(F)(F)c1ccc(CC(=O)Nc2ccc(C(=O)N(C)c3ccc(Cl)cc3Cl)cc2)cc1 (stereo not drawn) [Example 25] | 82 | 90 | < 0.05
